This is an account of results in patent publication US8022208B2, “Benzene derivative or salt thereof” (Astellas Pharma Inc., priority 2005, dated 2011).

As a reminder, the IC50 is the concentration that gives 50% inhibition.

One assay has as its target T1, human factor Xa (Homo sapiens, UniProt P00742).
T1 construct: purchased Enzyme Research Labs
The assay can be described thus: Enzyme inhibition by synthetic substrate method (S-2222). In kind it is biochemical. The conditions noted are these: human factor Xa 0.025 U/ml, synthetic substrate S-2222, pH 8.4, 37° C., 10 minutes. The procedure:
2) Test of Measuring Enzyme Inhibition by Synthetic Substrate Method:
25 μl of a reaction buffer (pH 8.4), 5 μl of a test compound dissolved in DMSO or DMSO alone, and 10 μl of a synthetic substrate, 2 mM S-2222 (Chromogenix) were added to a 96-well microplate, then 10 μl of 0.025 U/ml human factor Xa was added thereto, and reacted at 37° C. for 10 minutes, and then the absorbance change at 405 nm was measured with Molecular Devices' Spectramax 340PC^384, and the IC50 value was calculated.

The next assay has as its system human plasma. As to the kind of experiment: Extrinsic coagulation time (PT) in human plasma. The conditions noted are these: HemosIL RecombiPlasTin. The procedure:
3) Extrinsic Coagulation Time (PT):
2 μl of a test compound dissolved in DMSO or DMSO alone, and 50 μl of physiological saline were added to 50 μl of human plasma warmed at 37° C. for 1 minute, then 100 μl of HemosIL RecombiPlasTin (Instrumentation Laboratory) was added, and the coagulation time was measured. For measuring the coagulation time, used was Amelung's KC10A. The CT2 value (the concentration for 2-fold prolongation of the coagulation time with DMSO) was calculated through linear regression, by plotting the relative value (fold) of the coagulation time to the control and the test compound concentration.

A further assay has as its system mouse plasma. As to the kind of experiment: Ex vivo coagulation time with mice (oral administration), extrinsic coagulation time (PT). In kind it is in vivo, male ICR mice. The conditions noted are these: oral 100 mg/kg, 30 minutes after administration. The procedure: 4) Test of Measuring Ex Vivo Coagulation Time with Mice (Oral Administration):
To test animals of male ICR mice (body weight, about 40 g, SLC) that had been fasted for 12 hours or longer, a solution or suspension of a test compound dissolved in 0.5% methyl cellulose was forcedly orally administered (100 mg/kg), using a feeding needle; and after 30 minutes and after 2 hours, under anesthesia with diethyl ether, 1 ml of blood was collected from the mice through their postcaval vein in 3.8% sodium citrate to be 1/10 by volume, and centrifuged at 12000 rpm for 3 minutes to separate plasma therefrom. The extrinsic coagulation time (PT) and the intrinsic coagulation time (APTT) for this plasma were measured according to the following methods a) and b).
a) Extrinsic Coagulation Time (PT):
50 μl of the mouse plasma was warmed at 37° C. for 1 minute, and 100 μl of HemosIL RecombiPlasTin was added, and the coagulation time was counted. For measuring the coagulation time, used was Amelung's KC10A. The mouse plasma coagulation time with no test compound administration was control; and the coagulation time prolonging activity of the test compound was represented by a relative value to the control, 1.

T1 sequence (P00742 235-488 limits assumed): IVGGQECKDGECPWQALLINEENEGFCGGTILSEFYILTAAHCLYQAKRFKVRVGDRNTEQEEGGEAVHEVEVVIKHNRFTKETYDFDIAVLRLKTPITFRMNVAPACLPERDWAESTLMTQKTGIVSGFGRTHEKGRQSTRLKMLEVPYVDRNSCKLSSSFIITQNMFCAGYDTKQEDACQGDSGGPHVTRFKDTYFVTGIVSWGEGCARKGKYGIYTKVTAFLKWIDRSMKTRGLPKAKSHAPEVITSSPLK
T1 sequence (P00742 41-179 partner limits assumed): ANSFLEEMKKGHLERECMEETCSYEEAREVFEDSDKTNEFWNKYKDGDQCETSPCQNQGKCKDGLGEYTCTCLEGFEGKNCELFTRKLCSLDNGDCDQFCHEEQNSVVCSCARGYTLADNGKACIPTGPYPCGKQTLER

Compound `Cl.Cn1ccc(=O)c(-c2ccc(C(=O)Nc3c(O)cccc3C(=O)Nc3ccc(Cl)cn3)cc2)c1` [Example 1, N-(5-chloropyridin-2-yl)-3-hydroxy-2-{[4-(1-methyl-4-oxo-1,4-dihydropyridin-3-yl)benzoyl]amino}benzamide hydrochloride] came in with an IC50 at human factor Xa of 6.7 nM. Also, the “CT2 value (the concentration for 2-fold prolongation of the coagulation time with DMSO)” value in the assay with human plasma came to 0.34 µM. Take `CN(C)CCn1cccc(-c2ccc(C(=O)Nc3c(O)cccc3C(=O)Nc3ccc(Cl)cn3)cc2)c1=O.Cl` [Example 10]: in the assay with mouse plasma, the “coagulation time prolonging activity (relative value to the control, 1)” value came to 3.3 times.

`Cn1cccc(-c2ccc(C(=O)Nc3c(O)cccc3C(=O)Nc3ccc(Cl)cn3)cc2)c1=O` [Example 30] registered an IC50 at human factor Xa of 8.3 nM. For `Cl.O=C(Nc1c(O)cccc1C(=O)Nc1ccc(Cl)cn1)c1ccc(-c2cccn(CCN3CCCOCC3)c2=O)cc1` [Example 42], the “CT2 value (the concentration for 2-fold prolongation of the coagulation time with DMSO)” value with human plasma amounted to 0.65 µM. As to `CN1CCC(OCCn2cccc(-c3ccc(C(=O)Nc4c(O)cc(Cl)cc4C(=O)Nc4ccc(Cl)cn4)cc3)c2=O)CC1.Cl` [Example 78], the “coagulation time prolonging activity (relative value to the control, 1)” value with mouse plasma turned out to be 3.9 times.
